Source: the supplement of paper PMC11208160

Assay: recombinant UMI read abundance after kanamycin selection (control-corrected) (log10(CPM+1)); higher = more efficient recombination; extreme values may be limits of the assay; sequences stand for … in AGTGCAGAGAAAATCGGCCAGTTTTCTCTGCCTGCAGTCCGCATGCCGTGGGACCCCTTGGGTTCTAACCTGTTGCCTAGATTTATGCAGCGGACTGCCTTTCTCCCAAAGTGATAAACCGG…AGGTTGGTTTCACT; site = the 11-nt donor
Procedure, shortened: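 Values are reported as log10(CPM+1), obtained by converting sequencing counts to CPM, averaging replicates and scaling by control-derived factors. The counts came from recombinant UMIs amplified by PCR across the donor–target junction. These UMIs came from a pooled Escherichia coli screen of donor and donor-binding-loop pairs for the IS621 bridge recombinase, plated with IPTG (0.07 mM) plus kanamycin or left unselected, in two replicates each.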
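Also: IS621 bridge recombinase in Escherichia coli cells against a fixed T5 target plasmid.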

In order of falling “recombinant UMI read abundance (log10)” value:
1. ATAGTATCATGGACCGGTTTTCCCGGTAATCCGTATTTGAC (site ATAGTATCTGT)  3.75
2. ATAGTATCATGGACCGGTTTTCCCGGTAATCCGTATTTGCA (site ATAGTATCTTG)  3.37
3. ATCGTATCATGGACCGGTTTTCCCGGTAATCCGTATTTGTC (site ATCGTATCTGA)  3.35
4. ATAGTATCATGGACCGGTTTTCCCGGTAATCCGTATTTGCC (site ATAGTATCTGG)  3.34
5. ATATTGTCATGGACCGGTTTTCCCGGTAATCCGTATTTGTC (site ATATTGTCTGA)  3.25
6. ATAGTAGCATGGACCGGTTTTCCCGGTAATCCGTATTTGCA (site ATAGTAGCTTG)  3.08
7. ATATATGCATGGACCGGTTTTCCCGGTAATCCGTATTTGCT (site ATATATGCTAG)  2.99
8. ATAGTATCATGGACCGGTTTTCCCGGTAATCCGTATTTGAC (site CTAGTATCTGT)  2.94
9. ATAGCCTCATGGACCGGTTTTCCCGGTAATCCGTATTTGTA (site ATAGCCTCTTA)  2.86
10. ATACTATCATGGACCGGTTTTCCCGGTAATCCGTATTTGCA (site ATACTATCTTG)  2.84
11. ATAGGTACATGGACCGGTTTTCCCGGTAATCCGTATTTGAC (site ATAGGTACTGT)  2.8
12. ATATGAACATGGACCGGTTTTCCCGGTAATCCGTATTTGTC (site ATATGAACTGA)  2.77
13. ATAGTATCATGGACCGGTTTTCCCGGTAATCCGTATTTGAC (site TTAGTATCTGT)  2.66
14. ATAGATACATGGACCGGTTTTCCCGGTAATCCGTATTTGCC (site ATAGATACTGG)  2.54
15. ATAGTATCATGGACCGGTTTTCCCGGTAATCCGTATTTGAC (site GTAGTATCTGT)  2.49
16. ATAGTATCATGGACCGGTTTTCCCGGTAATCCGTATTTGCA (site AAAGTATCTTG)  2.4
17. ATAGTATCATGGACCGGTTTTCCCGGTAATCCGTATTTGCA (site ACAGTATCTTG)  2.34
18. ATAGCTACATGGACCGGTTTTCCCGGTAATCCGTATTTGTA (site ATAGCTACTTA)  2.3
19. ATCGCTGCATGGACCGGTTTTCCCGGTAATCCGTATTTGCC (site ATCGCTGCTGG)  2.27
20. ATCATGGCATGGACCGGTTTTCCCGGTAATCCGTATTTGCA (site ATCATGGCTTG)  2.21
21. ATCAATACATGGACCGGTTTTCCCGGTAATCCGTATTTGAC (site ATCGATACTGT)  2.2
22. ATCCTTGCATGGACCGGTTTTCCCGGTAATCCGTATTTGAT (site ATCCTTGCTAT)  2.19
23. ATAGGTACATGGACCGGTTTTCCCGGTAATCCGTATTTGAC (site TTAGGTACTGT)  2.15
24. ATAGTATCATGGACCGGTTTTCCCGGTAATCCGTATTTGCA (site AGAGTATCTTG)  2.15
25. ATATCATCATGGACCGGTTTTCCCGGTAATCCGTATTTGCG (site ATATCATCTCG)  2.11
26. ATAGCTACATGGACCGGTTTTCCCGGTAATCCGTATTTGCG (site ATAGCTACTCG)  2.1
27. ATAGGTACATGGACCGGTTTTCCCGGTAATCCGTATTTGAC (site CTAGGTACTGT)  1.97
28. ATCAGAACATGGACCGGTTTTCCCGGTAATCCGTATTTGAT (site ATCAGAACTAT)  1.88
29. ATCGGGTCATGGACCGGTTTTCCCGGTAATCCGTATTTGGT (site ATCGGGTCTAC)  1.85
30. ATCAGAGCATGGACCGGTTTTCCCGGTAATCCGTATTTGTC (site ATCAGAGCTGA)  1.82
31. ATAGAGACATGGACCGGTTTTCCCGGTAATCCGTATTTGGT (site ATAGAGACTAC)  1.75
32. ATCAATACATGGACCGGTTTTCCCGGTAATCCGTATTTGAC (site ATCAATACTGT)  1.74
33. ATACTATCATGGACCGGTTTTCCCGGTAATCCGTATTTGCA (site ACAGTATCTTG)  1.72
34. ATAGGTACATGGACCGGTTTTCCCGGTAATCCGTATTTGAC (site GTAGGTACTGT)  1.68
35. ATCCAAGCATGGACCGGTTTTCCCGGTAATCCGTATTTGTG (site ATCCAAGCTCA)  1.51
36. ATACGGACATGGACCGGTTTTCCCGGTAATCCGTATTTGAA (site ATACGGACTTT)  1.39
37. ATCAAGGCATGGACCGGTTTTCCCGGTAATCCGTATTTGCG (site ATCAAGGCTCG)  1.32
38. ATAGACCCATGGACCGGTTTTCCCGGTAATCCGTATTTGAT (site ATAGACCCTAT)  1.21
39. ATCCGCTCATGGACCGGTTTTCCCGGTAATCCGTATTTGCG (site ATCCGCTCTCG)  1.19
40. ATCCAAGCATGGACCGGTTTTCCCGGTAATCCGTATTTGTG (site ATCCAAGCTCG)  1.13
41. ATAGAGACATGGACCGGTTTTCCCGGTAATCCGTATTTGGT (site ATTGAGACTAC)  1.03
42. ATAGTAGCATGGACCGGTTTTCCCGGTAATCCGTATTTGCA (site ACAGTATCTTG)  0.993
43. ATAGAGACATGGACCGGTTTTCCCGGTAATCCGTATTTGGT (site ATGGAGACTAC)  0.992
44. ATCCCAGCATGGACCGGTTTTCCCGGTAATCCGTATTTGAG (site ATCCCAGCTCT)  0.952
45. ATATCTACATGGACCGGTTTTCCCGGTAATCCGTATTTGTG (site ATATCTACTCA)  0.895
46. ATCCCTACATGGACCGGTTTTCCCGGTAATCCGTATTTGAG (site TTCCCTACTCT)  0.854
47. ATATACCCATGGACCGGTTTTCCCGGTAATCCGTATTTGCG (site ATATACCCTCG)  0.817
48. ATAGTATCATGGACCGGTTTTCCCGGTAATCCGTATTTGCC (site CTAGTATCTGT)  0.756
49. ATAGAGACATGGACCGGTTTTCCCGGTAATCCGTATTTGGT (site ATCGAGACTAC)  0.671
50. ATCCTAGCATGGACCGGTTTTCCCGGTAATCCGTATTTGAG (site ATCCTAGCTCT)  0.651
51. ATATGTCCATGGACCGGTTTTCCCGGTAATCCGTATTTGTC (site ATATGTCCTGA)  0.623
52. ATCCAAGCATGGACCGGTTTTCCCGGTAATCCGTATTTGTG (site ATCCAAGCTCT)  0.581
53. ATATCTGCATGGACCGGTTTTCCCGGTAATCCGTATTTGGC (site ATATCTGCTGC)  0.5
54. ATCCCTACATGGACCGGTTTTCCCGGTAATCCGTATTTGAG (site ATCCCTACTCT)  0.465
55. ATATCTACATGGACCGGTTTTCCCGGTAATCCGTATTTGTG (site AGATCTACTCA)  0.401
56. ATATCTACATGGACCGGTTTTCCCGGTAATCCGTATTTGTG (site AAATCTACTCA)  0.252
57. ATATCTACATGGACCGGTTTTCCCGGTAATCCGTATTTGTG (site ACATCTACTCA)  0.246
58. ATCCCTACATGGACCGGTTTTCCCGGTAATCCGTATTTGAG (site CTCCCTACTCT)  0.196
59. ATCCTAGCATGGACCGGTTTTCCCGGTAATCCGTATTTGAG (site ATCCAAGCTCT)  0.122
60. ATCCTAGCATGGACCGGTTTTCCCGGTAATCCGTATTTGAG (site ATCCGAGCTCT)  0.0408
61. ATCGACCCATGGACCGGTTTTCCCGGTAATCCGTATTTGTG (site ATCGACCCTCA)  0.0241
62. ATCCTAGCATGGACCGGTTTTCCCGGTAATCCGTATTTGTT (site ATCCTAGCTAA)  0.0177
63. ATCCTAGCATGGACCGGTTTTCCCGGTAATCCGTATTTGTT (site AGCCTAGCTAA)  0.0169
64. ATCCTAGCATGGACCGGTTTTCCCGGTAATCCGTATTTGTT (site ACCCTAGCTAA)  0.0137
65. ATCCAAGCATGGACCGGTTTTCCCGGTAATCCGTATTTGTG (site ATCCAAGCTCC)  0.0133
66. ATCCCTACATGGACCGGTTTTCCCGGTAATCCGTATTTGAG (site GTCCCTACTCT)  0.0127
67. ATCCTAGCATGGACCGGTTTTCCCGGTAATCCGTATTTGAG (site ATCCCAGCTCT)  0.0117
68. ATCCTAGCATGGACCGGTTTTCCCGGTAATCCGTATTTGTT (site AACCTAGCTAA)  0.00989
69. ATCCCAGCATGGACCGGTTTTCCCGGTAATCCGTATTTGAG (site ATCCAAGCTCT)  0.00798
70. ATCCCAGCATGGACCGGTTTTCCCGGTAATCCGTATTTGAG (site ATCCGAGCTCT)  0.00574
71. ATATCACCATGGACCGGTTTTCCCGGTAATCCGTATTTGCT (site ATATCACCTAG)  0
72. ATCAATACATGGACCGGTTTTCCCGGTAATCCGTATTTGAC (site ATCCATACTGT)  0
73. ATCAATACATGGACCGGTTTTCCCGGTAATCCGTATTTGAC (site ATCTATACTGT)  0
74. ATCCCAGCATGGACCGGTTTTCCCGGTAATCCGTATTTGAG (site ATCCTAGCTCT)  0
75. ATCGACCCATGGACCGGTTTTCCCGGTAATCCGTATTTGGT (site ATCGACCCTAC)  0
